Source: the METLIN SMRT retention time set (Domingo-Almenara et al. 2019)

Experiment: gradient 5% acetonitrile 3 min, to 50% in 2 min, to 85% in 15 min, held 3 min, 100 µL/min
Conditions: column: Zorbax Extend-C18 2.1 x 50 mm; eluents: water / acetonitrile, 0.1% formic acid
Method in brief: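 Pure standards were run in mixtures of ~100 molecules by HPLC coupled to a quadrupole time-of-flight mass spectrometer. The column was a Zorbax Extend-C18 (2.1 × 50 mm, 1.8 μm) at 100 μL/min, with water and acetonitrile each containing 0.1% formic acid, in positive and negative ionization mode. Dead and dwell volumes were 40 μL and 900 μL. Retention time was taken from computationally picked adduct peaks, each manually inspected, with data collected over 3 months.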

`COc1ccc(-c2nc(Nc3nc(C)cc(C)n3)sc2CCC(=O)O)cc1` gave an RP-LC retention time of 702 s.
For `CCCN1CCN(C(=O)CC(c2cc(OC)c(OC)c(OC)c2)N2Cc3ccccc3C2=O)CC1` (stereo not drawn), the RP-LC retention time was 626 s.
`COc1cc(NC(=O)Cc2csc3nc(-c4ccccc4)cn23)cc(OC)c1` gave an RP-LC retention time of 795 s.
Work on `Cc1nn(-c2ccc(F)cc2)c(C)c1S(=O)(=O)N1CCC(C(=O)NCC2CCCO2)CC1` (stereo not drawn) yielded an RP-LC retention time of 742 s.
`CN(C)CCNC(=O)c1cccc2[nH]c(-c3ccncc3)nc12` gave an RP-LC retention time of 556 s.
In the case of `CCC(=O)N1CCC2(CC1)NCc1ccccc1-n1ccnc12`, the RP-LC retention time was 562 s.
In the case of `CCN1C(=O)C2(CCN(S(=O)(=O)c3ccc(C(F)(F)F)cc3)CC2)c2ccccc21`, the RP-LC retention time was 1130 s.
For `COc1ccc(-c2cc(N3CCC(NC(=O)c4ccc(OC)cc4OC)C3)n[nH]2)cc1` (stereo not drawn), the RP-LC retention time was 705 s.
`Cc1csc(-c2cc(S(=O)(=O)NCCc3ccc(Cl)cc3)c(C)s2)n1` showed an RP-LC retention time of 1110 s.
Compound `CC1=C(c2ccc(C)cc2)S(=O)(=O)N=C1N1CCCN(C(=O)NC2CCCC2)CC1` has an RP-LC retention time of 857 s.
`O=C(c1ccc2ncccc2c1)N1CCC(c2nc(C3CC3)n[nH]2)CC1` showed an RP-LC retention time of 491 s.
With `CCNC(=O)c1ccc(-c2nc3cc(NS(=O)(=O)c4ccc(C(C)C)cc4)ccc3n2C)cc1` the RP-LC retention time was 744 s.
`CCOC(=O)CCNC(=O)NCC1CC(=O)N(c2ccc(F)cc2)C1` (stereo not drawn) gave an RP-LC retention time of 629 s.
`O=C(Nc1cccc(OCc2nnc(-c3ccccc3)o2)c1)c1ccsc1` showed an RP-LC retention time of 914 s.
Compound `CC(NC(=O)C1CCN(c2cncnc2N2CCCCC2)CC1)c1ccc(F)cc1` (stereo not drawn) has an RP-LC retention time of 715 s.
`CCOc1ccccc1CNC(=O)CN1CCN(Cc2ccccc2F)C1=O` gave an RP-LC retention time of 854 s.
`CCOC(CNCc1cc(C)c2[nH]c3ccccc3c2c1C)OCC` showed an RP-LC retention time of 812 s.
Compound `O=C(NCc1ccc2c(c1)OCCCO2)c1ccc(Br)cc1` has an RP-LC retention time of 884 s.
In the case of `O=C(C1CCN(S(=O)(=O)Cc2ccc(F)cc2)CC1)N1CCOCC1`, the RP-LC retention time was 705 s.
In the case of `CC1=C(c2ccc(C(C)C)cc2)S(=O)(=O)N=C1N1CCC(C(=O)N2CCOCC2)CC1`, the RP-LC retention time was 779 s.
`COc1ccc(-c2csc(C)n2)cc1S(=O)(=O)N1CCc2ccccc2C1` gave an RP-LC retention time of 970 s.
Work on `COc1ccc(Cl)cc1S(=O)(=O)N1CCC(C(=O)NCCO)CC1` yielded an RP-LC retention time of 629 s.
Work on `Cc1ccc(N2CCN(C(=O)c3ccc(Cn4cncn4)cc3)CC2)c(C)c1` yielded an RP-LC retention time of 867 s.
`O=C(Cc1ccc(S(=O)(=O)N2CCN(c3ccccn3)CC2)s1)N1CCCC1` showed an RP-LC retention time of 615 s.
For `COc1ccc(CSc2nccc3c2ccn3CC(=O)N2CCN(c3ccccn3)CC2)cc1`, the RP-LC retention time was 592 s.
For `O=C(O)c1cn(-c2ccc3c(c2)OCO3)nn1`, the RP-LC retention time was 645 s.
Work on `O=C(c1ccsc1)N1CCN(c2nnc3ccc(C(F)(F)F)cn23)CC1` yielded an RP-LC retention time of 718 s.
Compound `CCN(C(=O)Cn1cnc2nc3c(cc2c1=O)CCCC3)c1cccc(Cl)c1` has an RP-LC retention time of 850 s.
`O=C(Nc1c(F)cc(F)cc1F)c1sc2ccccc2c1Cl` showed an RP-LC retention time of 1030 s.
For `COCCn1c(C)c(C)c(S(=O)(=O)c2ccc(C)cc2)c1NC(=O)C1CCCO1` (stereo not drawn), the RP-LC retention time was 859 s.
For `Cc1ccc(C)c(NS(=O)(=O)c2cc(-c3[nH]ncc3C(=O)N3CCCC3)oc2C)c1`, the RP-LC retention time was 760 s.
For `Cc1cc(F)ccc1NC(=O)CN1C(=O)CCCc2cc(S(=O)(=O)N3CCCCC3)ccc21`, the RP-LC retention time was 959 s.
In the case of `O=C(Nc1ccc(Cl)cc1)C1CCN(C(=O)c2ncn3c2COC(c2ccccc2)C3)CC1` (stereo not drawn), the RP-LC retention time was 859 s.
With `COc1cc(NC(=O)N2CCC3(CC2)NC(=O)c2ccccc2O3)cc(OC)c1OC` the RP-LC retention time was 685 s.
`CCOC(=O)Cc1n[nH]c(CSc2nc3ccccc3s2)n1` showed an RP-LC retention time of 691 s.
`COc1ccc(-c2noc(-c3nnn4c3COC(c3ccc(F)cc3)C4)n2)cc1OC` (stereo not drawn) showed an RP-LC retention time of 1020 s.
`CN1c2cc(Cl)ccc2C(=O)NC12CCN(C(=O)Nc1ccc3c(c1)OCCO3)CC2` gave an RP-LC retention time of 781 s.
`COc1cccc(CN2CCCn3nc(-c4cccc(OC)c4)cc3C2)c1` gave an RP-LC retention time of 561 s.
`Cc1nc(N2CCCC(C(=O)Nc3ccc(F)cc3)C2)c2c(C)c(C)oc2n1` (stereo not drawn) showed an RP-LC retention time of 910 s.
For `Cc1occc1C(=O)N1CC(c2nc(CCN(C)C(=O)C3CC3)no2)C1`, the RP-LC retention time was 661 s.
In the case of `COc1ccc(OC)c(NC(=O)C2CCCN(c3cnc4nccnc4c3)C2)c1` (stereo not drawn), the RP-LC retention time was 730 s.
Compound `Cc1ccc(-c2noc(CN3N=NC4C(=O)N(c5ccc6c(c5)CCC6)C(=O)C43)n2)cc1` (stereo not drawn) has an RP-LC retention time of 1110 s.
For `O=C(Cn1cc(-c2ccc(F)cc2)oc1=O)NCc1ccc(N2CCCCC2)cc1`, the RP-LC retention time was 635 s.
`CCc1cccc(NC(=O)Cn2cnc3nc(N4CCCC(C(=O)NC(C)C)C4)sc3c2=O)c1` (stereo not drawn) gave an RP-LC retention time of 755 s.
For `CN(C)C(=O)c1csc(N2CCN(c3ccccc3F)CC2)n1`, the RP-LC retention time was 884 s.
With `O=C(Nc1nc2c(s1)CCCC2C(=O)NCc1ccco1)c1ccc2c(c1)OCO2` (stereo not drawn) the RP-LC retention time was 789 s.
In the case of `COc1ccc(C(=O)NC2CCN(c3ccc(N4CCSCC4)nn3)CC2)c(OC)c1`, the RP-LC retention time was 644 s.
Work on `CCC1CCCCN1S(=O)(=O)c1cc(-c2nc(C)c(C)s2)sc1C` (stereo not drawn) yielded an RP-LC retention time of 1320 s.
In the case of `CCn1cnc2cc(-c3noc(C(NC(=O)c4ccco4)C(C)C)n3)ccc21` (stereo not drawn), the RP-LC retention time was 666 s.
In the case of `COc1ccccc1NC(=O)c1csc2c1CCCC2`, the RP-LC retention time was 1190 s.
With `Cc1ccc(CNC(=O)c2ncn3c2C(=O)N(C2CC2)C(C)(C(=O)NC2CCCC2)C3)cc1` (stereo not drawn) the RP-LC retention time was 770 s.
Work on `CCc1ccc(NC(=O)Cn2c(=O)cc(-c3nc(C(C)C)no3)c3ccccc32)cc1` yielded an RP-LC retention time of 1100 s.
`Cn1cnnc1SCCNC(=O)c1cc(-c2ccc(F)cc2)c[nH]1` gave an RP-LC retention time of 659 s.
With `CC(C)C(=O)Nc1ccc(C2(C(=O)Nc3ccc(N4CCOCC4)cc3)CCCCC2)cc1` the RP-LC retention time was 888 s.
Work on `COc1ccc(-c2ncc3c(n2)CCN(C(=O)Nc2ccccc2C(F)(F)F)C3)cc1` yielded an RP-LC retention time of 939 s.
Work on `CC(C)NC(=O)C1=CCN(C(=O)c2cccc(F)c2)CC1` yielded an RP-LC retention time of 712 s.
Work on `O=C(CSCC(=O)Nc1nc2ccccc2s1)Nc1nc(-c2cccs2)cs1` yielded an RP-LC retention time of 854 s.
`O=C(O)c1ccc(Nc2c(-c3cccc(O)c3)nc3cnccn23)cc1` showed an RP-LC retention time of 620 s.
With `O=C(CCSc1ccccc1)Nc1cccc(-c2ccn[nH]2)c1` the RP-LC retention time was 769 s.
`CCCN(CC1CCOC1)C(=O)Nc1cccc(Cl)c1C` (stereo not drawn) gave an RP-LC retention time of 835 s.
For `Cn1c(=O)n(CC(=O)N2CCCC2)c(=O)c2cnc(-c3ccc(Cl)cc3)nc21`, the RP-LC retention time was 924 s.
For `CCCn1cc(S(=O)(=O)NCc2ccc(C)cc2)c2cccnc21`, the RP-LC retention time was 951 s.
For `Cc1ccc(C2CC(=O)N(c3ccc(F)c(F)c3)C(=O)C2)cc1`, the RP-LC retention time was 997 s.
Compound `CC(=O)Nc1ccc(NC(=O)C2CC(=O)N(CCc3c[nH]c4ccc(Cl)cc34)C2)cc1` (stereo not drawn) has an RP-LC retention time of 679 s.
`CN(C)c1ccc(C(=O)N2CCC(COc3ccc(C(=O)N4CCCCC4)cc3)CC2)cc1` showed an RP-LC retention time of 929 s.
Work on `CC(C)CC(=O)N(CC(=O)N(Cc1ccc2c(c1)OCO2)Cc1ccco1)CC1CCCO1` (stereo not drawn) yielded an RP-LC retention time of 866 s.
For `Cn1c(=O)sc2cc(S(=O)(=O)N3CCC(C(=O)N4CCc5ccccc54)CC3)ccc21`, the RP-LC retention time was 933 s.
Compound `Cn1nccc1-c1cccc(-c2noc(-c3cnccn3)n2)c1` has an RP-LC retention time of 786 s.
In the case of `Cc1cc(=O)n(CC(=O)NCc2ccc3c(c2)OCO3)c(N2CCCCC2)n1`, the RP-LC retention time was 945 s.
`O=C(NCc1cccnc1Oc1ccccc1)c1cnn2cccnc12` showed an RP-LC retention time of 695 s.
`COCC(=O)Nc1ccc(-c2nc3cccnc3s2)cc1C` gave an RP-LC retention time of 729 s.
In the case of `Cc1ccccc1-n1ncc2c(C)nn(CC(=O)Nc3cccc(C(F)(F)F)c3)c(=O)c21`, the RP-LC retention time was 941 s.
In the case of `CC(C)n1cnc2ccc(-c3noc(COc4ccc(F)cc4)n3)cc21`, the RP-LC retention time was 783 s.
With `O=C(NCc1cccnc1)C1CCN(Cc2cc3ccccc3n2Cc2ccccc2Cl)CC1` the RP-LC retention time was 630 s.
`Cc1nc2sccn2c1-c1nnc(SCc2ccc([N+](=O)[O-])cc2)n1C` showed an RP-LC retention time of 626 s.
In the case of `CCOc1ccc(NC(=O)COc2cc(C)nc(N3CCCC3)n2)cc1`, the RP-LC retention time was 649 s.
`Cn1c(CN2CCN(C(=O)Nc3ccccc3C(F)(F)F)CC2)nc2ccccc21` gave an RP-LC retention time of 558 s.
For `CCc1ccccc1NC(=O)Cn1cnc2nc(N3CCCC(C(=O)NC4CC4)C3)sc2c1=O` (stereo not drawn), the RP-LC retention time was 692 s.
For `Cc1cccc(N2CCN(S(=O)(=O)c3ccc(-c4c(C)noc4C)cc3)CC2)c1C`, the RP-LC retention time was 1230 s.
In the case of `CC(CCNC(=O)c1ccc(NC(=O)C2=CSCCO2)cc1)N1CCCC1` (stereo not drawn), the RP-LC retention time was 600 s.
`O=C(Cc1cccs1)Nc1cnc(-c2ccccc2)nc1` showed an RP-LC retention time of 893 s.
With `O=C1CCC2(CNC(=O)c3cnccn3)CCCC=C2N1` (stereo not drawn) the RP-LC retention time was 623 s.
For `Cc1cccc(C)c1-n1ccn(Cc2nc(-c3ccc(C(C)(C)C)cc3)no2)c(=O)c1=O`, the RP-LC retention time was 1120 s.
In the case of `N#Cc1c(C(F)(F)F)cc(-c2ccccc2)nc1SCCC(N)=O`, the RP-LC retention time was 839 s.
`O=C(CCC1CCN(S(=O)(=O)c2ccccc2)CC1)N1CCCCC1` showed an RP-LC retention time of 894 s.
`Cc1ccn2c(Nc3ccc4c(c3)OCO4)c(-c3ccccc3)nc2c1` showed an RP-LC retention time of 690 s.
For `Cc1ccc(Nc2c(-c3cccc(O)c3)nc3cnccn23)cc1Cl`, the RP-LC retention time was 829 s.
Work on `Cc1ccc(-n2nc(C)c3sc(N4CCCC(C(=O)NCc5ccc(N(C)C)cc5)C4)nc32)cc1` (stereo not drawn) yielded an RP-LC retention time of 867 s.
